Measured values taken from ChEMBL document CHEMBL1142090, “Substrate competition studies using whole-cell accumulation assays with the major tripartite multidrug efflux pumps of Escherichia coli” (2007).
The source made the active and inactive calls. No cut-off for these calls is given here.

Columns and labels:
Escherichia coli [1] = experiment: Antibacterial activity against Escherichia coli AG102 with marR1 mutation after 24 hrs; assay type: functional; conditions: AG102, 24 h
Escherichia coli [2] = experiment: Antibacterial activity against Escherichia coli AG102MB after 24 hrs; assay type: functional
Escherichia coli [3] = experiment: Antibacterial activity against Escherichia coli HNCE4 after 24 hrs; assay type: functional; conditions: HNCE4, 24 h
Escherichia coli [4] = experiment: Increase in [3H]testosterone uptake in Escherichia coli AG102 at 100 uM; assay type: functional, organism-based
Escherichia coli [5] = experiment: Increase in [3H]testosterone uptake in Escherichia coli AG102MB at 100 uM; assay type: functional, organism-based
Escherichia coli [6] = experiment: Increase in [3H]testosterone uptake in Escherichia coli HNCE4 at 100 uM; assay type: functional, organism-based
Escherichia coli [7] = experiment: Effect on modulation in uptake of [3H]progesterone in Escherichia coli AG102MB; assay type: functional, organism-based
Escherichia coli [8] = experiment: Effect on modulation in uptake of [3H]progesterone in Escherichia coli HNCE4; assay type: functional, organism-based
Escherichia coli [9] = experiment: Effect on modulation in uptake of [3H]hydrocortisone in Escherichia coli AG102 with marR1 mutation; assay type: functional, organism-based
Escherichia coli [10] = experiment: Effect on modulation in uptake of [3H]testosterone in Escherichia coli AG102 with marR1 mutation; assay type: functional, organism-based

SMILES | MIC (Escherichia coli [1]) | MIC (Escherichia coli [2]) | MIC (Escherichia coli [3]) | other results
CC1(C)S[C@@H]2[C@H](NC(=O)[C@H](N)c3ccccc3)C(=O)N2[C@H]1C(=O)O [AMPICILLIN] | 32 µg/mL | 16 µg/mL | 16 µg/mL | 
N#CC(C#N)=NNc1cccc(Cl)c1 [CARBONYL CYANIDE M-CHLOROPHENYLHYDRAZONE] | 128 µM | 32 µM | 16 µM | Activity (Escherichia coli [4]): Active; Activity (Escherichia coli [5]): Active; Activity (Escherichia coli [6]): Active
O=C(N[C@H](CO)[C@H](O)c1ccc([N+](=O)[O-])cc1)C(Cl)Cl [CHLORAMPHENICOL] | 8 µg/mL | 2 µg/mL | > 128 µg/mL | 
C[C@H](CCC(=O)O)[C@H]1CC[C@H]2[C@@H]3[C@H](O)C[C@@H]4C[C@H](O)CC[C@]4(C)[C@H]3C[C@H](O)[C@]12C [CHOLIC ACID] | 16000 µg/mL | 4000 µg/mL | 2000 µg/mL | 
O=C(O)c1cn(C2CC2)c2cc(N3CCNCC3)c(F)cc2c1=O [CIPROFLOXACIN] | > 0.25 µg/mL | 0.0625 µg/mL | 0.0625 µg/mL | Activity (Escherichia coli [7]): Active; Activity (Escherichia coli [8]): Active
CC[C@H]1OC(=O)[C@H](C)[C@@H](O[C@H]2C[C@@](C)(OC)[C@@H](O)[C@H](C)O2)[C@H](C)[C@@H](O[C@@H]2O[C@H](C)C[C@H](N(C)C)[C@H]2O)[C@](C)(O)C[C@@H](C)[C@@H]2N[C@@H](COCCOC)O[C@H]([C@H]2C)[C@]1(C)O [DIRITHROMYCIN] | 256 µg/mL | 16 µg/mL | 16 µg/mL | 
CC[C@H]1OC(=O)[C@H](C)[C@@H](O[C@H]2C[C@@](C)(OC)[C@@H](O)[C@H](C)O2)[C@H](C)[C@@H](O[C@@H]2O[C@H](C)C[C@H](N(C)C)[C@H]2O)[C@](C)(O)C[C@@H](C)C(=O)[C@H](C)[C@@H](O)[C@]1(C)O [ERYTHROMYCIN] | 128 µg/mL | 4 µg/mL | 8 µg/mL | Activity (Escherichia coli [7]): Active; Activity (Escherichia coli [8]): Active
CC(=O)O[C@H]1C[C@@]2(C)[C@@H](C[C@@H](O)[C@H]3[C@@]4(C)CC[C@@H](O)[C@@H](C)[C@@H]4CC[C@@]32C)/C1=C(\CCC=C(C)C)C(=O)O [FUSIDIC ACID] | > 512 µg/mL | 16 µg/mL | 128 µg/mL | 
CN(C)c1ccc(C(=C2C=CC(=[N+](C)C)C=C2)c2ccc(N(C)C)cc2)cc1.[Cl-] [GENTIAN VIOLET] | 32 µg/mL | 0.5 µg/mL | 8 µg/mL | 
CC[n+]1c(-c2ccccc2)c2cc(N)ccc2c2ccc(N)cc21.[Br-] [HOMIDIUM BROMIDE] | 256 µg/mL | 4 µg/mL | 32 µg/mL | 
CO[C@@H]1[C@@H](O[C@@H]2O[C@H](C)[C@@H](O[C@H]3C[C@@](C)(O)[C@@H](OC(=O)CC(C)C)[C@H](C)O3)[C@H](N(C)C)[C@H]2O)[C@@H](CC=O)C[C@@H](C)[C@@H](O)/C=C/C=C/C[C@@H](C)OC(=O)C[C@H]1OC(C)=O [JOSAMYCIN] | > 512 µg/mL | 32 µg/mL | 4 µg/mL | 
NC[C@H]1O[C@H](O[C@H]2[C@H](O)[C@@H](O[C@H]3O[C@H](CO)[C@@H](O)[C@H](N)[C@H]3O)[C@H](N)C[C@@H]2N)[C@H](O)[C@@H](O)[C@@H]1O [KANAMYCIN] | 8 µg/mL | > 512 µg/mL | > 512 µg/mL | 
CO[C@@H]1[C@@H](OC(N)=O)[C@@H](O)[C@H](Oc2ccc3c(O)c(NC(=O)c4ccc(O)c(CC=C(C)C)c4)c(=O)oc3c2C)OC1(C)C [NOVOBIOCIN] | 512 µg/mL | 4 µg/mL | 4 µg/mL | 
CO[C@H]1C[C@H](O[C@H]2[C@H](C)[C@@H](O[C@@H]3O[C@H](C)C[C@H](N(C)C)[C@H]3O)[C@@H](C)C[C@@]3(CO3)C(=O)[C@H](C)[C@@H](O)[C@@H](C)[C@@H](C)OC(=O)[C@@H]2C)O[C@@H](C)[C@@H]1O [OLEANDOMYCIN] | > 512 µg/mL | 128 µg/mL | 256 µg/mL | 
COC(=O)[C@H]1[C@H]2C[C@@H]3c4[nH]c5cc(OC)ccc5c4CCN3C[C@H]2C[C@@H](OC(=O)c2cc(OC)c(OC)c(OC)c2)[C@@H]1OC [RESERPINE] | 256 µg/mL | 128 µg/mL | 128 µg/mL | 
CC[C@H]1OC(=O)[C@H](C)[C@@H](O[C@H]2C[C@@](C)(OC)[C@@H](O)[C@H](C)O2)[C@H](C)[C@@H](O[C@@H]2O[C@H](C)C[C@H](N(C)C)[C@H]2O)[C@](C)(O)C[C@@H](C)/C(=N\OCOCCOC)[C@H](C)[C@@H](O)[C@]1(C)O [ROXITHROMYCIN] | 512 µg/mL | 64 µg/mL | 128 µg/mL | 
CCCCCCCCCCCCOS(=O)(=O)[O-].[Na+] [SODIUM LAURYL SULFATE] | 1000 µg/mL | 62.5 µg/mL | 125 µg/mL | Activity (Escherichia coli [9]): Active; Activity (Escherichia coli [10]): Active
CN(C)[C@@H]1C(O)=C(C(N)=O)C(=O)[C@@]2(O)C(O)=C3C(=O)c4c(O)cccc4[C@@](C)(O)[C@H]3C[C@@H]12 [TETRACYCLINE] | 8 µg/mL | 2 µg/mL | 2 µg/mL | 
CC[C@H]1OC(=O)C[C@@H](O)[C@H](C)[C@@H](O[C@@H]2O[C@H](C)[C@@H](O[C@H]3C[C@@](C)(O)[C@@H](O)[C@H](C)O3)[C@H](N(C)C)[C@H]2O)[C@@H](CC=O)C[C@@H](C)C(=O)/C=C/C(C)=C/[C@@H]1CO[C@@H]1O[C@H](C)[C@@H](O)[C@@H](OC)[C@H]1OC [TYLOSIN] | > 512 µg/mL | 128 µg/mL | 64 µg/mL | 
